Data as given in patent US20230145793A1, “SUBSTITUTED PYRIMIDINE OR PYRIDINE AMINE DERIVATIVE, COMPOSITION THEREOF, AND MEDICAL USE THEREOF” (SHANGHAI HAIYAN PHARMACEUTICAL TECHNOLOGY CO., LTD., priority 2020, published 2023).
Read-outs that look alike come from different tables or passages of the source.

Legend:
[1] = Test 3: in-vivo pharmacokinetics test in mice (plasma, LC/MS/MS); conditions: mouse, male ICR mice; for clearance: read-out: Clearance rate CLz
Procedure: Test 3: In-Vivo Pharmacokinetics Test
Mice were respectively administrated with the compound of the present disclosure by intravenous injection or intragastric administration, and the concentration of the drug in the plasma at different time points was determined by LC/MS/MS to explore pharmacokinetic behavior of the compound of the present disclosure in the mouse so as to evaluate the pharmacokinetic characteristics of the compound.
Experimental animals: healthy adult male ICR mice (weight: 25 to 40 g, 12 mice, mice in the intravenous injection group had free access to water and food, and mice in the intragastric administration group fasted overnight and had free access to water and food 4 h after administration), provided by Beijing Vital River Laboratory Animal Co., Ltd.
Administration method and dosage: before administration, animals that met the experimental requirements were selected, weighed, and marked. The ICR mice were subjected to tail vein administration (2 mg/kg, 5% DMSO, pH=4.5, 20% Captisol) or intragastric administration (10 mg/kg, 5% DMSO, pH=4.5, 20% Captisol).
Blood sample collection: before blood sample collection, each mouse was tied, and about 100 μL of blood was collected from each mouse subjected to administration at a preset blood collection time point through the jugular vein (for the mice subjected to intravenous administration: blood was collected from each mouse at a total of 9 time points, i.e., 0.083 h, 0.25 h, 0.5 h, 1 h, 2 h, 4 h, 6 h, 7.5 h, and 24 h after administration; and for the mice subjected to intragastric administration: blood was collected from each mouse at a total of 9 time points, i.e., 0.083 h, 0.25 h, 0.5 h, 1 h, 2 h, 4 h, 6 h, 7.5 h, and 24 h after administration). The blood was transferred to a test tube (1.5 mL) containing K2EDTA and centrifuged for 4 min (8,000 rpm, 4° C.) to separate out plasma, and the whole process was completed within 15 min after blood collection. All samples were stored in a refrigerator at −20° C. before sample analysis. The concentration of the drug was determined by LC/MS/MS.
Pharmacokinetic property parameters of the compounds of some examples of the present disclosure in the mice under the conditions of same dosage and intravenous administration are shown in Table 3:
Pharmacokinetic property parameters of the compounds of some examples of the present disclosure in the mice under the conditions of same dosage and intragastric administration are shown in Table 4: […]

[2] = biological target: T1, A2B receptor (Homo sapiens, UniProt P29275); test: Test 1: inhibitory activity to the A2B receptor, cAMP HTRF in CHO-K1/ADORA2B/Gα15 cells, NECA 10 nM; assay type: cell-based
T1 construct: host or cells: CHO-K1 (co-expressing Gα15)
T1 sequence (P29275 1-332): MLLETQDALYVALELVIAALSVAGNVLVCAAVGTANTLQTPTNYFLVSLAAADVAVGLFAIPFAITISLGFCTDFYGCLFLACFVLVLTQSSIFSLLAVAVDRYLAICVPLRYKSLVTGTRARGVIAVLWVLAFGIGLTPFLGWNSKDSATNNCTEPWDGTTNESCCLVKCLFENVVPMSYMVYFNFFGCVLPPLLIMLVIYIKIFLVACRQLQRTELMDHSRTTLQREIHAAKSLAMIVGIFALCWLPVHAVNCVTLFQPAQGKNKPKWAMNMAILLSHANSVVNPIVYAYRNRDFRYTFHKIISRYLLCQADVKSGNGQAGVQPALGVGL
Procedure: (§1) Test 1: Inhibitory Activities to the A2A Receptor and the A2B Receptor CHO-K1/ADORA2A/Gα15 (GenScript, M00246) and CHO-K1/ADORA2B/Gα15 (GenScript, M00329) cells were cultured in a Ham's F-12 (Gibco, 31765092) medium containing 10% FBS, Zeocin (200 ug/mL), and Hygromycin B (100 ug/mL), or containing 10% FBS, G418 (400 ug/mL), and Hygromycin B (100 ug/mL) under culture conditions specified in the corresponding instruction. Screening procedure was as follows: 1. The cell density was adjusted with a serum-free medium to 6×10^5 cells/mL. 2. 5 uL of cell solution, 2.5 μL of NECA (Sigma, 119140-10MG), and 2.5 μL of compound solution were placed into each well of a 384-well plate (Greiner Bio-One, 784075) in sequence, the final concentration of NECA was 50 nM (CHO-K1/ADORA2A) or 10 nM (CHO-K1/ADORA2B), and the compound solution was subjected to 3-fold dilution from the final concentration of 3 uM. 3. The cells were placed still and cultured in an incubator at 37° C. for 30 min. 4. 5 μL of cAMP-d2 and 5 μL of cAMP-ab (Cisbio, 62AM4PEB) were added in sequence. 5. The 384-well plate was placed in dark at the room temperature for 1 h. 6. The plate was read (Victor X5, PerkinElmer), data were analyzed by XLfit nonlinear regression, and IC50 values of the compounds were calculated.

[3] = biological target: T2, A2A receptor (Homo sapiens, UniProt P29274); test: Test 1: inhibitory activity to the A2A receptor, cAMP HTRF in CHO-K1/ADORA2A/Gα15 cells, NECA 50 nM; assay type: cell-based
T2 construct: host or cells: CHO-K1 (co-expressing Gα15)
Procedure: as §1

[4] = biological target: T1, A2B receptor; test: Test 2: inhibitory activity to the A2B receptor, cAMP HTRF in CHO-K1/ADORA2B/Gα15 cells, NECA 0.1 uM; assay type: cell-based
Procedure: (§2) Test 2: Inhibitory Activities to the A2A Receptor and the A2B Receptor
(§3) Screening procedure was as follows:
(§4) 1. The cell density was adjusted with a serum-free medium to 6×10^5 cells/mL.
(§5) 3. The cells were placed still and cultured in an incubator at 37° C. for 30 min.
(§6) 4. 5 μL of cAMP-d2 and 5 μL of cAMP-ab (Cisbio, 62AM4PEB) were added in sequence.
(§7) 5. The 384-well plate was placed in dark at the room temperature for 1 h.
(§8) 6. The plate was read (Victor X5, PerkinElmer), data were analyzed by XLfit nonlinear regression, and IC50 values of the compounds were calculated.

[5] = biological target: T2, A2A receptor; test: Test 2: inhibitory activity to the A2A receptor, cAMP HTRF in CHO-K1/ADORA2A/Gα15 cells, NECA 1 uM; assay type: cell-based
Procedure: as §2, §3, §4, §5, §6, §7, §8

[6] = intravenous (tail vein) 2 mg/kg, read-out: Area under the curve AUC0-t
[7] = intravenous (tail vein) 2 mg/kg
[8] = po, intragastric administration 10 mg/kg
[9] = po, intragastric administration 10 mg/kg, read-out: Area under the curve AUClast

T2 sequence (P29274 whole entry): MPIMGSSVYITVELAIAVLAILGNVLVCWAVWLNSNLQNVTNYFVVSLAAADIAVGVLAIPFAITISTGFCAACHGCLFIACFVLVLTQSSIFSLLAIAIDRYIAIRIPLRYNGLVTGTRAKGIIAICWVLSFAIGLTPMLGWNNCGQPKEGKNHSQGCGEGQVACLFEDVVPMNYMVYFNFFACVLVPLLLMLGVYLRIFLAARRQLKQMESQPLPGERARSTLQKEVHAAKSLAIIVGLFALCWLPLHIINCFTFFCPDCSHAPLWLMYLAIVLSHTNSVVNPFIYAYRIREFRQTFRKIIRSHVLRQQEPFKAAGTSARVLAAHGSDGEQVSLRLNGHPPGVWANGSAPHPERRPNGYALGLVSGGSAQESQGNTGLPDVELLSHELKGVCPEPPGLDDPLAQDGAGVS

AUC(0-t) [1, 6] [ng·h/mL] | clearance [1, 7] [mL/min/kg] | Cmax [1, 8] [ng/mL] | AUC(0-t) [1, 9] [ng·h/mL] | IC50 [2] [µM] | IC50 [3] [µM] | IC50 [4] [µM] | IC50 [5] [µM] | Compound
3600 | 9.12 | 15900 | 22200 | 0.004 | < 0.001 | – | – | Cc1c(C#N)cccc1-c1nc(N)c(Cl)c(-c2cn(Cc3cccc(C(C)(C)O)n3)nn2)n1 [Compound L-3]
– | – | – | – | 0.004 | 0.001 | 0.064 | 0.022 | Cc1c(C#N)cccc1-c1nc(N)c(F)c(-c2cn(Cc3ccn(CC(F)F)n3)nn2)n1 [Compound L-44]
2590 | 12.7 | 7210 | 13300 | 0.002 | 0.001 | 0.05 | 0.018 | Cc1c(C#N)cccc1-c1nc(N)c(F)c(-c2cn(Cc3ccn(CCF)n3)nn2)n1 [Compound L-38]
– | – | – | – | – | – | 0.038 | 0.016 | Cc1c(C#N)cccc1-c1nc(N)c(F)c(-c2cn(Cc3nc(C(C)(C)O)ccc3O)nn2)n1 [Compound L-94]
4680 | 6.97 | 6790 | 23800 | 0.001 | 0.001 | – | – | Cc1c(C#N)cccc1-c1nc(N)c(Cl)c(-c2cn(Cc3ccn(C)n3)nn2)n1 [Compound L-9]

Second part, the compound before the results:

Compound | AUC(0-t) [1, 6] [ng·h/mL] | clearance [1, 7] [mL/min/kg] | Cmax [1, 8] [ng/mL] | AUC(0-t) [1, 9] [ng·h/mL] | IC50 [2] [µM] | IC50 [3] [µM] | IC50 [4] [µM] | IC50 [5] [µM]
Cc1c(C#N)cccc1-c1nc(N)c(F)c(-c2cn(Cc3ccn(C4CC4)n3)nn2)n1 [Compound L-32] | 2510 | 13.3 | 8980 | 14800 | 0.001 | < 0.001 | – | –
Cc1c(C#N)cccc1-c1cc(-c2cn(Cc3cccc(C(C)(C)O)n3)nn2)nc(N)n1 [Compound D1, reference compound] | – | – | – | – | – | – | 0.075 | 0.065
Cc1c(C#N)cccc1-c1nc(N)c(Cl)c(-c2cn(Cc3cc(C(C)(C)O)n(C)n3)nn2)n1 [Compound L-10] | 2740 | 12.1 | 12600 | 18000 | 0.001 | 0.004 | – | –
Cc1c(C#N)cccc1-c1nc(N)c(F)c(-c2cn(Cc3ccn(C)n3)nn2)n1 [Compound L-67] | 2310 | 14.2 | 5720 | 17300 | 0.007 | 0.003 | – | –
Cc1c(C#N)cccc1-c1nc(N)c(F)c(-c2cn(Cc3cccc(C(C)(C)O)n3)nn2)n1 [Compound L-1] | – | – | – | – | 0.003 | 0.001 | 0.062 | 0.024
Cc1c(C#N)cccc1-c1nc(N)c(F)c(-c2cn(Cc3ccn(C4CCOCC4)n3)nn2)n1 [Compound L-89] | – | – | – | – | 0.005 | < 0.001 | 0.068 | 0.011
Cc1c(C#N)cccc1-c1nc(N)c(F)c(-c2cn(Cc3ccn(C4CC(F)(F)C4)n3)nn2)n1 [Compound L-19] | – | – | – | – | 0.006 | 0.003 | – | –
Cc1c(C#N)cccc1-c1nc(N)c(F)c(-c2cn(Cc3cc(C)n(C)n3)nn2)n1 [Compound L-79] | – | – | – | – | 0.025 | 0.019 | – | –
Cc1c(C#N)cccc1-c1nc(N)nc(-c2cn(Cc3cccc(C(C)(C)O)n3)nn2)c1F [Compound L-2] | – | – | – | – | 0.029 | 0.062 | – | –
Cc1c(C#N)cccc1-c1nc(N)c(F)c(-c2cn(Cc3ccn(CC4CCCO4)n3)nn2)n1 [Compound L-83] | – | – | – | – | 0.007 | 0.003 | – | –
